Assay results reported in the kinase profiling compilation of Christmann-Franck et al. (2016).

Experiments:
Test in all cases: KINOMEscan competition binding
Conditions in all cases: compound 0.5 µM
CAMKK2 (human) = CAMKK2 (human) (UniProt Q96RR4)
STK10 (human) = STK10 (human) (UniProt O94804)
AKT3 (human) = AKT3 (human) (UniProt Q9Y243)
PTK2B (human) = PTK2B (human) (UniProt Q14289)
ADCK4 (human) = ADCK4 (human) (UniProt Q96D53)
DYRK1B (human) = DYRK1B (human) (UniProt Q9Y463)
[1] = system: PIK3CA (human), P42336 [E542K]
ERN1 (human) = ERN1 (human) (UniProt O75460)
MAPK9 (human) = MAPK9 (human) (UniProt P45984)
MAPK10 (human) = MAPK10 (human) (UniProt P53779)
MAP3K12 (human) = MAP3K12 (human) (UniProt Q12852)
DCLK1 (human) = DCLK1 (human) (UniProt O15075)
CDKL5 (human) = CDKL5 (human) (UniProt O76039)
MAPKAPK2 (human) = MAPKAPK2 (human) (UniProt P49137)
MYO3B (human) = MYO3B (human) (UniProt Q8WXR4)
FLT4 (human) = FLT4 (human) (UniProt P35916)
TLK2 (human) = TLK2 (human) (UniProt Q86UE8)
PIP5K1A (human) = PIP5K1A (human) (UniProt Q99755)
MAP3K1 (human) = MAP3K1 (human) (UniProt Q13233)
MAST1 (human) = MAST1 (human) (UniProt Q9Y2H9)
PIP4K2B (human) = PIP4K2B (human) (UniProt P78356)
TBK1 (human) = TBK1 (human) (UniProt Q9UHD2)
MAP2K1 (human) = MAP2K1 (human) (UniProt Q02750)
CDK13 (human) = CDK13 (human) (UniProt Q14004)
SLK (human) = SLK (human) (UniProt Q9H2G2)
STK36 (human) = STK36 (human) (UniProt Q9NRP7)
CDC42BPG (human) = CDC42BPG (human) (UniProt Q6DT37)
[2] = system: RET (human), P07949 [M918T]
TTK (human) = TTK (human) (UniProt P33981)
ACVR2B (human) = ACVR2B (human) (UniProt Q13705)
EPHA6 (human) = EPHA6 (human) (UniProt Q9UF33)
PDGFRB (human) = PDGFRB (human) (UniProt P09619)
EPHB2 (human) = EPHB2 (human) (UniProt P29323)
CDK7 (human) = CDK7 (human) (UniProt P50613)
[3] = system: KIT (human), P10721 [D816V]
MUSK (human) = MUSK (human) (UniProt O15146)
KIT (human) = KIT (human) (UniProt P10721)
[4] = system: MET (human), P08581 [Y1235D]

MAP2K1 (human), sequence (Q02750 whole entry, looked up): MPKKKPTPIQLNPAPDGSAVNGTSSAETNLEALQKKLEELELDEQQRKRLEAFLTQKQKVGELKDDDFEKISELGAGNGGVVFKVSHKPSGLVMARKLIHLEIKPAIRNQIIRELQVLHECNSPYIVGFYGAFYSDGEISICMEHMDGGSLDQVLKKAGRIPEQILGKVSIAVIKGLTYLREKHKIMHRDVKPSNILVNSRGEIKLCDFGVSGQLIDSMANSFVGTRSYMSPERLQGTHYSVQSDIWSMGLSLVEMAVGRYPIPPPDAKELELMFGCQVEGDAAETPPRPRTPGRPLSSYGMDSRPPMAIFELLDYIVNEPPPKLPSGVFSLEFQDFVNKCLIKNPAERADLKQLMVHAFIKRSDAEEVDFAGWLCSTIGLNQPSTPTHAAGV
CDK13 (human), sequence (Q14004 whole entry, looked up): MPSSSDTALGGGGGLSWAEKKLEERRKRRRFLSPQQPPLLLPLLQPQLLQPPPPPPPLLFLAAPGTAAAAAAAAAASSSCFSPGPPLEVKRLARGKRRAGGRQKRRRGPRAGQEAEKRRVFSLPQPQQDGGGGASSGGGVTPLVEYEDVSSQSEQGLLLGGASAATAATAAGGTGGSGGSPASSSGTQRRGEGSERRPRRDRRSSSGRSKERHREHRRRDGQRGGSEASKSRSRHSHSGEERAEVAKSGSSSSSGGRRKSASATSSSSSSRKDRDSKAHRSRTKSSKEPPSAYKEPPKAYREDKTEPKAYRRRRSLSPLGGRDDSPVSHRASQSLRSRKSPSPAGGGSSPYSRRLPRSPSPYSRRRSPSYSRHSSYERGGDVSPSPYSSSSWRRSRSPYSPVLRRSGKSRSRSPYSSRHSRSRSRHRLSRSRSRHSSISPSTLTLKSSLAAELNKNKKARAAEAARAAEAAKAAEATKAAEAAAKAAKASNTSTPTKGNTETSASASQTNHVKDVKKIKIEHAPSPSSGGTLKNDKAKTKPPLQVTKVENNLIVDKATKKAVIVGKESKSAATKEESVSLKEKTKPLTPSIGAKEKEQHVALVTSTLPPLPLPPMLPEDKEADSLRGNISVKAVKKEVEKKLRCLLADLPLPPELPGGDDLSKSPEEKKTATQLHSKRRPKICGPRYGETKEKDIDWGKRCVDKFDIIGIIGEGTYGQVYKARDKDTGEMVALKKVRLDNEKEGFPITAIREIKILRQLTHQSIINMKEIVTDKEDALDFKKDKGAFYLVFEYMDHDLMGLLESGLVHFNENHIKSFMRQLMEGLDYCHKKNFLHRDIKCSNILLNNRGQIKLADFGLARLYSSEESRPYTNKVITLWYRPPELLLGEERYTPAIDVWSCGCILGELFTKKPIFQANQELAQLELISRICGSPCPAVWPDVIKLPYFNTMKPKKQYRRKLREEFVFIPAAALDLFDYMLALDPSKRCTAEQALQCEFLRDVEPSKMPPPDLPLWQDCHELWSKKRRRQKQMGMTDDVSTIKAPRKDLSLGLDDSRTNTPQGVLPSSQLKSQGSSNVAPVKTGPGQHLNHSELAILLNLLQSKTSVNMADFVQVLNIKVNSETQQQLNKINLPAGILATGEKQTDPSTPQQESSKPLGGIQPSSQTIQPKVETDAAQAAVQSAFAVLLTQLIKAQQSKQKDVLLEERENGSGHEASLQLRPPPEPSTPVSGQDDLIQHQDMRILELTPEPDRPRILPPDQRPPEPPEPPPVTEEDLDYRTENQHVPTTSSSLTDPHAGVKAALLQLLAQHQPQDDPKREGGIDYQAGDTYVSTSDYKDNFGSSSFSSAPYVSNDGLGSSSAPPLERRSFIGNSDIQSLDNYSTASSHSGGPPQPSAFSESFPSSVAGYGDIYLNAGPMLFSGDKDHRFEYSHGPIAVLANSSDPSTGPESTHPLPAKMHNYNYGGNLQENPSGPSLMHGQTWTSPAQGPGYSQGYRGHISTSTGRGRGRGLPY
MUSK (human), sequence (O15146 whole entry, looked up): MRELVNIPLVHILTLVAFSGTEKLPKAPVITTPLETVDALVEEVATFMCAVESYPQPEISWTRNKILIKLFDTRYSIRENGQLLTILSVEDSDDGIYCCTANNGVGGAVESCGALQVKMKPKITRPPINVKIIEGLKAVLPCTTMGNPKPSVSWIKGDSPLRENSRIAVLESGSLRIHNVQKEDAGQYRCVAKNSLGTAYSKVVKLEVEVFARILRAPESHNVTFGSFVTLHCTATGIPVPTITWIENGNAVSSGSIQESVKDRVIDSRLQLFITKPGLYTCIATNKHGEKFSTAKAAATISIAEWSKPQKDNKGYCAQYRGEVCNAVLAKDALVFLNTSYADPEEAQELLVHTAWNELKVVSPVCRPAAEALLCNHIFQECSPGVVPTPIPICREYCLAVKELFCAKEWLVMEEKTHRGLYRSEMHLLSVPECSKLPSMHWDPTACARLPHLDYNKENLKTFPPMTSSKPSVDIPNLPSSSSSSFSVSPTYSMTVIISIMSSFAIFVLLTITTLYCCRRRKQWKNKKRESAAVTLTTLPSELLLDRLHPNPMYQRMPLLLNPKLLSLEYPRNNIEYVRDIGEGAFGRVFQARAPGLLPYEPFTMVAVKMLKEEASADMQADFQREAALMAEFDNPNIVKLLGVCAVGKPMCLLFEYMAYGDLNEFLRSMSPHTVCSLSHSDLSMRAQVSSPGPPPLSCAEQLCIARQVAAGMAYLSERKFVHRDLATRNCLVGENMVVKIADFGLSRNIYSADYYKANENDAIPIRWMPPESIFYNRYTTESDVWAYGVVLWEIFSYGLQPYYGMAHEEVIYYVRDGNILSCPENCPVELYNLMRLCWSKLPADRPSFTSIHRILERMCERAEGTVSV
DCLK1 (human), sequence (O15075 whole entry, looked up): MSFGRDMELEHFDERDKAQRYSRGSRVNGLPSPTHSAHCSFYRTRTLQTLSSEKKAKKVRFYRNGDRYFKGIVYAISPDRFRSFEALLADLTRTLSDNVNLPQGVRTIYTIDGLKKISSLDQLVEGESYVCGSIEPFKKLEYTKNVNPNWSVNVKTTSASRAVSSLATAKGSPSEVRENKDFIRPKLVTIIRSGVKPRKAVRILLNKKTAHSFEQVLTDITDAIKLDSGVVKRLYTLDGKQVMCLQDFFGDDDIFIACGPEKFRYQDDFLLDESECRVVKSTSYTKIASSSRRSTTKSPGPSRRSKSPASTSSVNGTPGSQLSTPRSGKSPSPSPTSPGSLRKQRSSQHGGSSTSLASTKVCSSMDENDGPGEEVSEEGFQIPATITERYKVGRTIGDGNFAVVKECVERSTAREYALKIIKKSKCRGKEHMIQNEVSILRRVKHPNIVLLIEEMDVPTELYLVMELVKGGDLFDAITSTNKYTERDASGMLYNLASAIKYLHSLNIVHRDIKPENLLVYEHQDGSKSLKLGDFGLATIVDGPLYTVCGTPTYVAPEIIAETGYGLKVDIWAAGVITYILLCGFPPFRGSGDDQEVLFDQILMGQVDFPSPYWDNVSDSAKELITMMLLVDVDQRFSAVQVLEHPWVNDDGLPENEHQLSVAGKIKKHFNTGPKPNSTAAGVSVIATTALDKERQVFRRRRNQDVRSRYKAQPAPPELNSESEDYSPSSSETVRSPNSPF
MYO3B (human), sequence (Q8WXR4 whole entry, looked up): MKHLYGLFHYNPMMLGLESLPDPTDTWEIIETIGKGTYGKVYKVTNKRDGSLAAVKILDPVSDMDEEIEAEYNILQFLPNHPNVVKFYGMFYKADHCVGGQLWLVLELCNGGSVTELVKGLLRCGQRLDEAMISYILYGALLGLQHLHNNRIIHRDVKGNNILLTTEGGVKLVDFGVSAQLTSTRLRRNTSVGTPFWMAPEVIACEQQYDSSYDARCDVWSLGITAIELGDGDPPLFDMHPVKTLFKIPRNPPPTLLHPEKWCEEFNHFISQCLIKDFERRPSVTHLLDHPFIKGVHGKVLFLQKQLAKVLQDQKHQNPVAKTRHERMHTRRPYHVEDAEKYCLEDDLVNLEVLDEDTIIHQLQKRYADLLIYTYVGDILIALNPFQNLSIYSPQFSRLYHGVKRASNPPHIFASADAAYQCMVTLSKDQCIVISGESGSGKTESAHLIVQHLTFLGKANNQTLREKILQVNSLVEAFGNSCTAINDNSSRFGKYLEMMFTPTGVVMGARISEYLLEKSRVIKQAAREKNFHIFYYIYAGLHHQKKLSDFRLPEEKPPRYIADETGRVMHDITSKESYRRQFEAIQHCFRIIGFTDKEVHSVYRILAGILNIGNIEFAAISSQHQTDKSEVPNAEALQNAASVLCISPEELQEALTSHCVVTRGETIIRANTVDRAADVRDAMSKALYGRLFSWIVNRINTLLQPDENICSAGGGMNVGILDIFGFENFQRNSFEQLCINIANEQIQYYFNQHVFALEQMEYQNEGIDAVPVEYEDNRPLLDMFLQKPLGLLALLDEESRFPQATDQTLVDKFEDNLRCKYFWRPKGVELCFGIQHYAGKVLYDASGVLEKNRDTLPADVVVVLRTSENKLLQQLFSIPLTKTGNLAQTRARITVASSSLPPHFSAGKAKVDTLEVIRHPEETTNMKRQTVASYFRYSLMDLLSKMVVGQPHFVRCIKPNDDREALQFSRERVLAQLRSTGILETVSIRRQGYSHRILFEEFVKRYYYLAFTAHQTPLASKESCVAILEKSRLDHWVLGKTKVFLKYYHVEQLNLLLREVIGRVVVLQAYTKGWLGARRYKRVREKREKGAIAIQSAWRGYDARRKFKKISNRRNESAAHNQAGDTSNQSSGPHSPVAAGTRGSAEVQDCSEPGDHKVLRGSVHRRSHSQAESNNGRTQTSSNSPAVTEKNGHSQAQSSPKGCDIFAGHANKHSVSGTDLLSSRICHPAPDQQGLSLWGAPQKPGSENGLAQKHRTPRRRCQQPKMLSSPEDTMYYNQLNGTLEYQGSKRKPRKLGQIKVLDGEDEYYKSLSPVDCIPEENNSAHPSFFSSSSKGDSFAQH

`Cn1c2ccccc2c2c3c(c4c5ccccc5n(CCC#N)c4c21)CNC3=O` gave a kinase still bound, per cent of control (CAMKK2 (human)) of 1.6%, a kinase still bound, per cent of control (STK10 (human)) of 28% and a kinase still bound, per cent of control (AKT3 (human)) of 100%. The kinase still bound, per cent of control (PTK2B (human)) was 19%, the kinase still bound, per cent of control (ADCK4 (human)) was 93% and the kinase still bound, per cent of control (DYRK1B (human)) was 12%. For the same molecule, the kinase still bound, per cent of control [1] was 100%, the kinase still bound, per cent of control (ERN1 (human)) was 43% and the kinase still bound, per cent of control (MAPK9 (human)) was 46%. The kinase still bound, per cent of control (MAPK10 (human)) was 20%, the kinase still bound, per cent of control (MAP3K12 (human)) was 89% and the kinase still bound, per cent of control (DCLK1 (human)) was 87%. For the same molecule, the kinase still bound, per cent of control (CDKL5 (human)) was 10%, the kinase still bound, per cent of control (MAPKAPK2 (human)) was 100% and the kinase still bound, per cent of control (MYO3B (human)) was 100%. The kinase still bound, per cent of control (FLT4 (human)) was 62%, the kinase still bound, per cent of control (TLK2 (human)) was 88% and the kinase still bound, per cent of control (PIP5K1A (human)) was 1.6%. For the same molecule, the kinase still bound, per cent of control (MAP3K1 (human)) was 100%, the kinase still bound, per cent of control (MAST1 (human)) was 100% and the kinase still bound, per cent of control (PIP4K2B (human)) was 2%. The kinase still bound, per cent of control (TBK1 (human)) was 92%, the kinase still bound, per cent of control (MAP2K1 (human)) was 71% and the kinase still bound, per cent of control (CDK13 (human)) was 100%. For the same molecule, the kinase still bound, per cent of control (SLK (human)) was 69%, the kinase still bound, per cent of control (STK36 (human)) was 100% and the kinase still bound, per cent of control (CDC42BPG (human)) was 100%. The kinase still bound, per cent of control [2] was 0.15%, the kinase still bound, per cent of control (TTK (human)) was 23% and the kinase still bound, per cent of control (ACVR2B (human)) was 97%. The kinase still bound, per cent of control (EPHA6 (human)) was 86%, the kinase still bound, per cent of control (PDGFRB (human)) was 42% and the kinase still bound, per cent of control (EPHB2 (human)) was 100%. For the same molecule, the kinase still bound, per cent of control (CDK7 (human)) was 84%, the kinase still bound, per cent of control [3] was 2% and the kinase still bound, per cent of control (MUSK (human)) was 100%. For the same molecule, the kinase still bound, per cent of control (KIT (human)) was 81% and the kinase still bound, per cent of control [4] was 80%.
